Experimental findings from patent US20100179225A1, “POI Prevention” (CYTOKINE PHARMASCIENCES, INC., priority 2008, published 2010) are described below.

Assay [1] concerns MCP-1 mRNA. Briefly: Proinflammatory gene expression in ME, real-time RT-PCR: MCP-1. It counts as in vivo, mice. As to conditions: 5 mg/kg i.v. preoperative. From the text: The small bowel of the animals was subjected to a standardized, surgical manipulation (IM) as described previously (Kalff J C, Schraut W H, Simmons R L et al. Surgical manipulation of the gut elicits an intestinal muscularis inflammatory response resulting in postsurgical ileus. Ann Surg 1998; 228:652-663; Wehner S, Schwarz N T, Hundsdoerfer R et al. Induction of IL-6 within the rodent intestinal muscularis after intestinal surgical stress. Surgery 2005; 137:436-446). In brief, after anesthesia a midline abdominal incision was made into the peritoneal cavity. The entire small bowel was eventuated and manipulated with standardized moderate intensity using two moist cotton applicators as described previously. After IM, the laparotomy was closed by one layer of continuous suture, except when probe sampling was conducted within 20 minutes after surgery. These animals were held in anesthesia and the abdomen was closed by a clamp and protected with sterile gauze. All other animals recovered rapidly from the bowel manipulation procedure. Control animals exclusively underwent laparotomy without eventration and IM (sham operation).
Animals within examples referring to FIGS. 2-9 were treated 90 minutes before operation with 0 mg/kg (placebo group), or 5 mg/kg bodyweight CNI-1493. […]
Proinflammatory gene expression was analyzed in placebo and CNI-1493 (5 mg/kg) treated animals at 1, 3, 6 and 24 hours after operation; n=5-7 each group. […] Total RNA was analyzed in ME specimen that was prepared as described before (Wehner S, Behrendt F F, Lyutenski B N et al. Inhibition of macrophage function prevents intestinal inflammation and postoperative ileus in rodents. Gut 2007; 56:176-185). […] Expression of mRNA was quantified in triplicate by a RT-PCR with gene expression assays for […] (MCP-1; #Mm00441242_m1), CCL3 (MIP-1α #Mm00441258_m1), IL-6 (Assay ID #Mm00446190_ml), TNF-α (#Mm00443258_m1) and ICAM-1 (#Mm00516023_m1). […] Data quantification was performed by the ΔΔCT method. […]

Assay [2] has as its system Lewis rats. Put plainly: Intestinal injury (Park score) after syngeneic orthotopic small intestinal transplantation. Type of assay: in vivo. As to conditions: 1 mg/kg i.v. to donor and recipient. On the procedure:
Syngeneic orthotopic small intestinal transplantation was performed in Lewis rats as previously described (Schwarz N T, Nakao A, Nalesnik M A, Kalff J C, Murase N, Bauer A J. Protective effects of ex vivo graft radiation and tacrolimus on syngeneic transplanted rat small bowel motility. Surgery 2002; 131: 413-423). […] Then the graft vascular bed was perfused with chilled UW solution (University of Wisconcin) and the intestinal lumen was irrigated with 50 ml cold 0.9% NaCl solution containing […]. neomycin sulfate (Uro Nebacetin N, Nycomed, Germany). The graft was stored in cold UW solution during the preparation of the recipient. An end-to-side anastomosis between the graft aorta and the recipient infra-renal aorta, and between the graft vein and recipient vena cava, was performed. Approximately 80% of the recipient intestine was removed and enteric continuity was restored by proximal and distal end-to-end intestinal anastomoses. […]
Histological changes and intestinal injury were graded by determination of the Park score 3 and 18 hours after reperfusion. […] Probes were analyzed in a blinded way.
Syngeneic orthotopic small intestinal transplantation was performed as described above and histological changes and intestinal injury were graded by determination of the Park score 3 and 18 hours after reperfusion. […] Probes were analyzed in a blinded way.

`C/C(=N\N=C(N)N)c1cc(NC(=O)CCCCCCCCC(=O)Nc2cc(/C(C)=N/N=C(N)N)cc(/C(C)=N/N=C(N)N)c2)cc(/C(C)=N/N=C(N)N)c1.Cl.Cl.Cl.Cl` [CNI-1493]: the “MCP-1 mRNA expression (fold upregulation)” value in assay [1] (3 hours after IM) was found to be 142±45 fold; in assay [1] (6 hours after IM), 317±143 fold; in assay [1] (24 hours after IM), 92±44 fold.
With `C/C(=N\N=C(N)N)c1cc(NC(=O)CCCCCCCCC(=O)Nc2cc(/C(C)=N/N=C(N)N)cc(/C(C)=N/N=C(N)N)c2)cc(/C(C)=N/N=C(N)N)c1.CS(=O)(=O)O.CS(=O)(=O)O.CS(=O)(=O)O.CS(=O)(=O)O` [CPSI-2364], the “Park's score” value in assay [2] (3 hours after reperfusion) is 1.83; in assay [2] (18 hours after reperfusion), 1.5.
